In BindingDB's records for doi:10.1021/jm500892k (Shandong University, 2014):

Key:
[1] = Inhibition of Influenza A virus A/chicken/shandong/S2/02(H9N2) Neuraminidase
[2] = Inhibition of Influenza A virus A/duck/china/QJ/01(H5N1) Neuraminidase
[3] = Inhibition of Influenza A virus A/duck/china/1206/2012(H5N1) Neuraminidase

Compound	IC50 [1] [nM]	IC50 [2] [nM]	IC50 [3] [nM]
C=CCOc1ccccc1CN[C@H]1CC(C(=O)O)=C[C@@H](OC(CC)CC)[C@@H]1NC(C)=O	1910	> 200	> 200
CCC(CC)O[C@@H]1C=C(C(=O)O)C[C@H](NCCCc2ccccc2)[C@H]1NC(C)=O	> 5000	190	81
CCCCN(C(=N)N)[C@H]1CC(C(=O)O)=C[C@@H](OC(CC)CC)[C@@H]1NC(C)=O	> 1230	> 3000	> 3000
CCC(CC)O[C@@H]1C=C(C(=O)O)C[C@H](NCc2ccccc2OCc2ccco2)[C@H]1NC(C)=O	720	> 200	> 200
CCC(CC)O[C@@H]1C=C(C(=O)O)C[C@H](NC/C=C/c2ccccc2)[C@H]1NC(C)=O	3230	106	48
CCC(CC)O[C@@H]1C=C(C(=O)O)C[C@H](N(Cc2ccccc2OC)C(=N)N)[C@H]1NC(C)=O	360	–	250
CCC(CC)O[C@@H]1C=C(C(=O)O)C[C@H](NCc2ccccc2O)[C@H]1NC(C)=O	5000	194	63
CCC(CC)O[C@@H]1C=C(C(=O)O)C[C@H](N(CCCc2ccccc2)C(=N)N)[C@H]1NC(C)=O	> 5000	> 3000	1780
CCC(CC)O[C@@H]1C=C(C(=O)O)C[C@H](NCC(C)C)[C@H]1NC(C)=O	1750	99	83
CCC(CC)O[C@@H]1C=C(C(=O)O)C[C@H](NCc2ccc(-c3ccccc3)cc2-c2ccccc2)[C@H]1NC(C)=O	38	58	39
CCC(CC)O[C@@H]1C=C(C(=O)O)C[C@H](NC(=N)N)[C@H]1NC(C)=O [Guanidino-Oseltamivir Carboxylicacid]	11	2.6	2.3
CCC(CC)O[C@@H]1C=C(C(=O)O)C[C@H](N(CC(C)C)C(=N)N)[C@H]1NC(C)=O	> 5000	450	390
CCC(CC)O[C@@H]1C=C(C(=O)O)C[C@H](NCc2cccs2)[C@H]1NC(C)=O	99	54	53
CCC(CC)O[C@@H]1C=C(C(=O)O)C[C@H](NCc2ccccc2)[C@H]1NC(C)=O	420	80	19
CCCCN[C@H]1CC(C(=O)O)=C[C@@H](OC(CC)CC)[C@@H]1NC(C)=O	630	76	56
CCC(CC)O[C@@H]1C=C(C(=O)O)C[C@H](NCc2ccc(-c3cccs3)cc2)[C@H]1NC(C)=O	210	14	4.3
CCC(CC)O[C@@H]1C=C(C(=O)O)C[C@H](N(Cc2ccc(-c3ccccc3)cc2)C(=N)N)[C@H]1NC(C)=O	370	430	270

Compound	IC50 [1] [nM]	IC50 [2] [nM]	IC50 [3] [nM]
CCCN(C(=N)N)[C@H]1CC(C(=O)O)=C[C@@H](OC(CC)CC)[C@@H]1NC(C)=O	> 5000	3900	1140
CCC(CC)CN(C(=N)N)[C@H]1CC(C(=O)O)=C[C@@H](OC(CC)CC)[C@@H]1NC(C)=O	> 5000	> 3000	> 3000
CCC(CC)O[C@@H]1C=C(C(=O)NO)C[C@H](N)[C@H]1NC(C)=O	120	180	> 200
CCC(CC)O[C@@H]1C=C(C(=O)O)C[C@H](N(Cc2ccc(C(C)C)cc2)C(=N)N)[C@H]1NC(C)=O	2160	3200	1560
CCC(CC)O[C@@H]1C=C(C(=O)O)C[C@H](NCc2ccc(-c3ccccc3)cc2)[C@H]1NC(C)=O	580	6.7	3.8
CCC(CC)O[C@@H]1C=C(C(=O)O)C[C@H](N(CCC(C)C)C(=N)N)[C@H]1NC(C)=O	4880	> 3000	2540
CCC(CC)O[C@@H]1C=C(C(=O)O)C[C@H](NCCCN)[C@H]1NC(C)=O	1050	> 200	> 200
CCC(CC)O[C@@H]1C=C(C(=O)NO)C[C@H](NC(=N)N)[C@H]1NC(C)=O	160	> 200	> 200
CCC(CC)O[C@@H]1C=C(C(=O)O)C[C@H](N(Cc2cccs2)C(=N)N)[C@H]1NC(C)=O	350	190	88
CCC(CC)CN[C@H]1CC(C(=O)O)=C[C@@H](OC(CC)CC)[C@@H]1NC(C)=O	70	540	43
CCC(CC)O[C@@H]1C=C(C(=O)O)C[C@H](NCc2ccccc2OC)[C@H]1NC(C)=O	250	> 2000	117
CCC(CC)O[C@@H]1C=C(C(=O)O)C[C@H](NCc2ccccc2Cl)[C@H]1NC(C)=O	> 430	29	14
CCC(CC)O[C@@H]1C=C(C(=O)O)C[C@H](NCc2ccccc2F)[C@H]1NC(C)=O	650	108	90
CCCCCN(C(=N)N)[C@H]1CC(C(=O)O)=C[C@@H](OC(CC)CC)[C@@H]1NC(C)=O	> 5000	> 3000	3620
CCC(CC)O[C@@H]1C=C(C(=O)O)C[C@H](NCc2ccc(-c3ccccc3)cc2Cl)[C@H]1NC(C)=O	340	44	27
CCC(CC)O[C@@H]1C=C(C(=O)O)C[C@H](NCc2ccccc2Br)[C@H]1NC(C)=O	42	56	38
CCC(CC)O[C@@H]1C=C(C(=O)O)C[C@H](N(Cc2ccccc2)C(=N)N)[C@H]1NC(C)=O	–	> 3000	3020
